For orientation: EC50 means the concentration needed to bring the measured effect to its halfway point.

The structures appear in SMILES notation. Read-outs that look alike come from different tables or passages of the source. Some results are limits rather than exact numbers.

This note sets out measurements from US9346809B2 (LEO PHARMA A/S, priority 2009, dated 2016).

Assay type in all cases: biochemical
Assay [1] deals with T1, JAK1 (aa 850-1154, catalytic domain, GST-tag) (Homo sapiens, UniProt P23458).
T1 construct: JAK1 (aa 850-1154) and TYK2 (aa 871-1187) are expressed with an N-terminally fused GST-tag; GST (N); purchased Carna Biosciences, Inc; host or cells: baculovirus expression system
In words: JAK kinase assay (HTRF, phosphorylation of TK substrate-biotin), JAK1. The note with it: ATP at Km (7 μM). In outline:
(§1)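 Catalytic-domain kinases phosphorylated 1 μM biotin-TK substrate at ATP Km (JAK1 7 μM, JAK2 4 μM, JAK3 2 μM, TYK2 13 μM) in Hepes pH 7.0 with DTT and MgCl2, for 20-30 min at RT; JAK1 and TYK2 also had 50 nM SEB. Detection was by HTRF (streptavidin-XL665/Cryptate antibody) overnight, giving EC50.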
On the technique in general: TR-FRET usually uses a lanthanide donor and a delayed reading to cut background.

For assay [2], the target named is T2, JAK2 (catalytic domain, His-tag) (Homo sapiens, UniProt O60674).
T2 construct: All four purified enzymes contain only the catalytic domain; His (N); purchased Carna Biosciences, Inc; host or cells: baculovirus expression system
In words: JAK kinase assay (HTRF, phosphorylation of TK substrate-biotin), JAK2. The note with it: ATP at Km (4 μM). A digest of the protocol: as §1

In assay [3] the target is T3, JAK3 (catalytic domain, His-tag) (Homo sapiens, UniProt P52333).
T3 construct: All four purified enzymes contain only the catalytic domain; His (N); purchased Carna Biosciences, Inc; host or cells: baculovirus expression system
Briefly: JAK kinase assay (HTRF, phosphorylation of TK substrate-biotin), JAK3. The note with it: ATP at Km (2 μM). In outline:
as §1

The target of assay [4] is T4, TYK2 (aa 871-1187, catalytic domain, GST-tag) (Homo sapiens, UniProt P29597).
T4 construct: JAK1 (aa 850-1154) and TYK2 (aa 871-1187) are expressed with an N-terminally fused GST-tag; GST (N); purchased Carna Biosciences, Inc; host or cells: baculovirus expression system
T4 sequence (P29597 871-1187): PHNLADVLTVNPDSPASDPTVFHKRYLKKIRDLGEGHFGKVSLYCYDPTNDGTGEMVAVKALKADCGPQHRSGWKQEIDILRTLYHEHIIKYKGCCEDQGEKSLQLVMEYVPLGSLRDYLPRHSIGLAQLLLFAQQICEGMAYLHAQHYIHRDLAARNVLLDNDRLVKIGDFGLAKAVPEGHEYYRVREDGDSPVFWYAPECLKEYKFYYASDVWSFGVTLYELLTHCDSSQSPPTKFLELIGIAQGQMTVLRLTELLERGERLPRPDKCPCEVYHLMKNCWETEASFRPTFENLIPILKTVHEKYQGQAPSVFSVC
In words: JAK kinase assay (HTRF, phosphorylation of TK substrate-biotin), TYK2. The note with it: ATP at Km (13 μM). A digest of the protocol:
as §1

Where [5] appears, read: HTRF assay, read-out: JAK1 kinase inhibitory activity (EC50 indicator).
The mark [6] stands for this setting: HTRF assay, read-out: JAK2 kinase inhibitory activity (EC50 indicator).
Where [7] appears, read: HTRF assay, read-out: JAK3 kinase inhibitory activity (EC50 indicator).
The mark [8] stands for this setting: HTRF assay, read-out: TYK2 kinase inhibitory activity (EC50 indicator).
[9] abbreviates: read-out: JAK1 kinase inhibitory activity (EC50 indicator).
Where [10] appears, read: read-out: JAK2 kinase inhibitory activity (EC50 indicator).
The mark [11] stands for this setting: read-out: JAK3 kinase inhibitory activity (EC50 indicator).
Where [12] appears, read: read-out: TYK2 kinase inhibitory activity (EC50 indicator).

T2 sequence (O60674 849-1124 limits assumed): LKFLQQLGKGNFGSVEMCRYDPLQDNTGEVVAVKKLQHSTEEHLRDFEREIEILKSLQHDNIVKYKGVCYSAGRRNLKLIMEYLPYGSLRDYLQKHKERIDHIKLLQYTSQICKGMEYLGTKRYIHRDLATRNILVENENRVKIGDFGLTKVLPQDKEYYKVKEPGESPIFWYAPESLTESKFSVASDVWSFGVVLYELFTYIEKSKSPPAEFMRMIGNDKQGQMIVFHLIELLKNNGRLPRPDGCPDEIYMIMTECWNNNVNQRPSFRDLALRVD
T3 sequence (P52333 822-1111 limits assumed): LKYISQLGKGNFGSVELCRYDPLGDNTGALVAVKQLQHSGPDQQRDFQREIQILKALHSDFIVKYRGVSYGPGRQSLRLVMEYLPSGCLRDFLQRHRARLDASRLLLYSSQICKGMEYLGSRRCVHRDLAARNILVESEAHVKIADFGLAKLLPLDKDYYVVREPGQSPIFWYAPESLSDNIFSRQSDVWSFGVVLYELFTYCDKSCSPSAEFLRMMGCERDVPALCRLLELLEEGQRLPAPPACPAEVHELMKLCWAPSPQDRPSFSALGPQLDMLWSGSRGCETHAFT
T1 sequence (P23458 850-1154): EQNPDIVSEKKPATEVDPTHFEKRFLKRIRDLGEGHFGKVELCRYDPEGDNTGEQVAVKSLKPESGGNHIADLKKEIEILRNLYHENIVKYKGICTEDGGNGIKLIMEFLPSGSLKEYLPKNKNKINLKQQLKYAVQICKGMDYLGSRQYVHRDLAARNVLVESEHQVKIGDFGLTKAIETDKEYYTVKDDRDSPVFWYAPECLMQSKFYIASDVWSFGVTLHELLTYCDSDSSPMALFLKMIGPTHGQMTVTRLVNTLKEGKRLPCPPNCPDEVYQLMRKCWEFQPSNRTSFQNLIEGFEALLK

On to `N#CCc1ccc(CC(=O)N2CCN(c3ncnc4[nH]cc(Cl)c34)CC23CC3)cc1` [Example 319, (4-{2-[7-(5-Chloro-7H-pyrrolo[2,3-d]pyrimidin-4-yl)-4,7-diaza-spiro[2.5]oct-4-yl]-2-oxo-ethyl}-phenyl)-acetonitrile], for which the EC50 in assay [1] (setting [5]) is more than 500 nM; in assay [2] (setting [6]) it was 100 to 500 nM; in assay [3] (setting [7]), 100 to 500 nM; in assay [4] (setting [8]), more than 500 nM.
`O=C(c1cnc2ccccc2c1)N1CCN(c2ncnc3[nH]ccc23)CC12CC2` [Example 163, [7-(7H-Pyrrolo[2,3-d]pyrimidin-4-yl)-4,7-diaza-spiro[2.5]oct-4-yl]-quinolin-3-yl-methanone]: the EC50 in assay [1] (setting [9]) is less than 100 nM; in assay [2] (setting [10]), less than 100 nM; in assay [3] (setting [11]), more than 500 nM; in assay [4] (setting [12]), 100 to 500 nM.
Take `CC(C)(C)[S+]([O-])N1CCN(c2ncnc3[nH]ccc23)CC12CC2` (stereo not shown) [Example 449, 4-[4-(2-Methyl-propane-2-sulfinyl)-4,7-diaza-spiro[2.5]oct-7-yl]-7H-pyrrolo[2,3-d]pyrimidine]: the EC50 in assay [1] (HTRF assay, read-out: JAK1 kinase inhibitory activity (EC50)) is more than 500 nM; in assay [2] (HTRF assay, read-out: JAK2 kinase inhibitory activity (EC50)), 100 to 500 nM; in assay [3] (HTRF assay, read-out: JAK3 kinase inhibitory activity (EC50)) it was more than 500 nM; in assay [4] (HTRF assay, read-out: TYK2 kinase inhibitory activity (EC50)), more than 500 nM.
Take `Cc1csc(C(=O)N2CCN(c3ncnc4[nH]ccc34)CC23CC3)c1` [Example 62, (4-Methyl-thiophen-2-yl)-[7-(7H-pyrrolo[2,3-d]pyrimidin-4-yl)-4,7-diaza-spiro[2.5]oct-4-yl]-methanone]: the EC50 in assay [1] (setting [9]), in assay [2] (setting [10]), in assay [3] (setting [11]) and in assay [4] (setting [12]) was less than 100 nM in each case.
In the case of `O=C(c1cc2ccccc2s1)N1CCN(c2ncnc3[nH]ccc23)CC12CC2` [Example 26, Benzo[b]thiophen-2-yl-[7-(7H-pyrrolo[2,3-d]pyrimidin-4-yl)-4,7-diazaspiro[2.5]oct-4-yl]methanone], the EC50 is less than 100 nM in assay [1] (setting [9]), less than 100 nM in assay [2] (setting [10]), 100 to 500 nM in assay [3] (setting [11]) and 100 to 500 nM in assay [4] (setting [12]).
As for `Cc1ccc(C(=O)N2CCN(c3ncnc4[nH]ccc34)CC23CC3)cc1C(=O)Nc1cccc(C(F)(F)F)c1` [Example 41, 2-Methyl-5-[7-(7H-pyrrolo[2,3-d]pyrimidin-4-yl)-4,7-diazaspiro[2.5]octane-4-carbonyl]-N-(3-trifluoromethylphenyl)benzamide], the EC50 is 100 to 500 nM in assay [1] (setting [9]), more than 500 nM in assay [2] (setting [10]), more than 500 nM in assay [3] (setting [11]) and more than 500 nM in assay [4] (setting [12]).
In the case of `N#Cc1cccc(CC(=O)N2CCN(c3ncnc4[nH]cc(Cl)c34)CC23CC3)c1` [Example 323, 3-{2-[7-(5-Chloro-7H-pyrrolo[2,3-d]pyrimidin-4-yl)-4,7-diaza-spiro[2.5]oct-4-yl]-2-oxo-ethyl}-benzonitrile], the EC50 in assay [1] (setting [5]) was more than 500 nM; in assay [2] (setting [6]) it was less than 100 nM; in assay [3] (setting [7]) it was 100 to 500 nM; in assay [4] (setting [8]) it was more than 500 nM.
For `O=C(c1cccc(-c2ccccc2)c1)N1CCN(c2ncnc3[nH]ccc23)CC12CC2` [Example 6, Biphenyl-3-yl-[7-(7H-pyrrolo[2,3-d]pyrimidin-4-yl)-4,7-diazaspiro[2.5]oct-4-yl]methanone], the EC50 is less than 100 nM in assay [1] (setting [9]), less than 100 nM in assay [2] (setting [10]), 100 to 500 nM in assay [3] (setting [11]) and 100 to 500 nM in assay [4] (setting [12]).
As to `O=C(NC1CCCCC1)N1[C@@H]2CC[C@H]1CN(c1ncnc3[nH]ccc13)C2` [Example 46, 3-(7H-Pyrrolo[2,3-d]pyrimidin-4-yl)-3,8-diaza-bicyclo[3.2.1]octane-8-carboxylic acid cyclohexylamide], the EC50 in assay [1] (setting [9]) was 100 to 500 nM; in assay [2] (setting [10]), 100 to 500 nM; in assay [3] (setting [11]), more than 500 nM; in assay [4] (setting [12]) it was more than 500 nM.
On to `O=C(CCC(F)(F)F)N1[C@@H]2CC[C@H]1CN(c1ncnc3[nH]ccc13)C2` [Example 181, 4,4,4-Trifluoro-1-[3-(7H-pyrrolo[2,3-d]pyrimidin-4-yl)-3,8-diaza-bicyclo[3.2.1]oct-8-yl]-butan-1-one], for which the EC50 in assay [1] (setting [9]) was less than 100 nM; in assay [2] (setting [10]), less than 100 nM; in assay [3] (setting [11]) it was 100 to 500 nM; in assay [4] (setting [12]), 100 to 500 nM.
As for `COc1cc(C(=O)N2CCN(c3ncnc4[nH]ccc34)CC23CC3)cs1` [Example 384, (5-Methoxy-thiophen-3-yl)-[7-(7H-pyrrolo[2,3-d]pyrimidin-4-yl)-4,7-diaza-spiro[2.5]oct-4-yl]-methanone], the EC50 in assay [1] (setting [5]), in assay [2] (setting [6]), in assay [3] (setting [7]) and in assay [4] (setting [8]) was less than 100 nM throughout.
As for `O=C(c1cnc2ccccc2n1)N1[C@@H]2CC[C@H]1CN(c1ncnc3[nH]ccc13)C2` [Example 345, [3-(7H-Pyrrolo[2,3-d]pyrimidin-4-yl)-3,8-diaza-bicyclo[3.2.1]oct-8-yl]-quinoxalin-2-yl-methanone], the EC50 in assay [1] (setting [5]) is less than 100 nM; in assay [2] (setting [6]) it was less than 100 nM; in assay [3] (setting [7]), 100 to 500 nM; in assay [4] (setting [8]), more than 500 nM.
As for `O=C(c1ccc(S(=O)(=O)NCc2cccs2)cc1)N1CCN(c2ncnc3[nH]ccc23)CC12CC2` [Example 204, 4-[7-(7H-Pyrrolo[2,3-d]pyrimidin-4-yl)-4,7-diaza-spiro[2.5]octane-4-carbonyl]-N-thiophen-2-ylmethyl-benzenesulfonamide], the EC50 is less than 100 nM in assay [1] (setting [9]), less than 100 nM in assay [2] (setting [10]), less than 100 nM in assay [3] (setting [11]) and 100 to 500 nM in assay [4] (setting [12]).
As for `Cc1cncc(C(=O)N2CCN(c3ncnc4[nH]ccc34)CC23CC3)n1` [Example 418, (6-Methyl-pyrazin-2-yl)-[7-(7H-pyrrolo[2,3-d]pyrimidin-4-yl)-4,7-diaza-spiro[2.5]oct-4-yl]-methanone], the EC50 in assay [1] (setting [5]), in assay [2] (setting [6]), in assay [3] (setting [7]) and in assay [4] (setting [8]) was less than 100 nM each time.
With `O=C(C1CCc2ccccc21)N1CCN(c2ncnc3[nH]ccc23)CC12CC2` (stereo not shown) [Example 105, Indan-1-yl-[7-(7H-pyrrolo[2,3-d]pyrimidin-4-yl)-4,7-diaza-spiro[2.5]oct-4-yl]-methanone], the concentration for a half-maximal effect (EC50) is 100 to 500 nM in assay [1] (setting [9]), less than 100 nM in assay [2] (setting [10]), 100 to 500 nM in assay [3] (setting [11]) and more than 500 nM in assay [4] (setting [12]).
Take `O=C(c1csc2ccccc12)N1CCN(c2ccnc3[nH]ccc23)CC12CC2` [Example 233, Benzo[b]thiophen-3-yl-[7-(1H-pyrrolo[2,3-b]pyridin-4-yl)-4,7-diaza-spiro[2.5]oct-4-yl]-methanone]: the EC50 in assay [1] (setting [5]) is 100 to 500 nM; in assay [2] (setting [6]), less than 100 nM; in assay [3] (setting [7]) it was more than 500 nM; in assay [4] (setting [8]), more than 500 nM.
For the molecule `N#Cc1ccc(CS(=O)(=O)N2CCN(c3ncnc4[nH]ccc34)CC23CC3)cc1` [Example 79, 4-[7-(7H-Pyrrolo[2,3-d]pyrimidin-4-yl)-4,7-diaza-spiro[2.5]octane-4-sulfonylmethyl]-benzonitrile], the EC50 was less than 100 nM in assay [1] (setting [9]), less than 100 nM in assay [2] (setting [10]), 100 to 500 nM in assay [3] (setting [11]) and more than 500 nM in assay [4] (setting [12]).
Take `NS(=O)(=O)c1ccc(C(=O)N2CCN(c3ncnc4[nH]ccc34)CC23CC3)s1` [Example 405, 5-[7-(7H-Pyrrolo[2,3-d]pyrimidin-4-yl)-4,7-diaza-spiro[2.5]octane-4-carbonyl]-thiophene-2-sulfonic acid amide]: the EC50 in assay [1] (setting [5]), in assay [2] (setting [6]), in assay [3] (setting [7]) and in assay [4] (setting [8]) was less than 100 nM each time.
`N#Cc1ccc(C(=O)N2[C@@H]3CC[C@@H]2CN(c2ncnc4[nH]ccc24)C3)c(F)c1` [Example 351, 3-Fluoro-4-[3-(7H-pyrrolo[2,3-d]pyrimidin-4-yl)-3,8-diaza-bicyclo[3.2.1]octane-8-carbonyl]-benzonitrile]: the concentration for a half-maximal effect (EC50) in assay [1] (setting [5]) is less than 100 nM; in assay [2] (setting [6]), less than 100 nM; in assay [3] (setting [7]), 100 to 500 nM; in assay [4] (setting [8]), more than 500 nM.
